For 28 molecules, IC50 results are on record in patent US9376425B2, “Heterocyclic compounds as MDM2 inhibitors for the treatment of cancer” (AMGEN INC., priority 2011, dated 2016).

The first test deals with T1, human MDM2 (GST-hMDM2 1-188), interaction with biotinylated-p53 (1-83) (Homo sapiens, UniProt Q00987).
T1 construct: Amino acid residues 1-188 of human MDM2 were expressed; made in house; host or cells: Escherichia coli
T1 sequence (Q00987 1-188): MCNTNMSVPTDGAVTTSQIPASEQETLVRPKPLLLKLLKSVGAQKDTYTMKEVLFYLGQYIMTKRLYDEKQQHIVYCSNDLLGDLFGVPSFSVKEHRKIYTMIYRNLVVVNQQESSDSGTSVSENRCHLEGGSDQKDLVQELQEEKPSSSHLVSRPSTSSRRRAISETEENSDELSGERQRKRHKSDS
Kind of test: improved HTRF assay (HTRF2 assay), inhibition of HDM2-p53 interaction. Format: binding. The following applies: 0.2 nM GST-hMDM2, 0.5 nM biotinylated-p53, 100 mM KF. In short, it runs like this: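 GST-hMDM2 preincubated 20 min at RT with serially diluted compound, then biotinylated p53 (1-83, E. coli) added for 60 min. Detection with SA-XLent, anti-GST cryptate and KF, equilibrated >4 h; final DMSO 2%. TR-FRET read; % inhibition calculated relative to nutlin-3.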
On the technique in general: In TR-FRET formats the signal depends on donor and acceptor labels being close together.
`CC[C@]1(CC(=O)O)O[C@H](c2cccc(Cl)c2)[C@@H](c2ccc(Cl)cc2)N([C@@H](CC(F)(F)F)CS(=O)(=O)C(C)(C)C)C1=O` (single isomer, unassigned) [Example 342, 2-((2R,5R,6R)-4-((S)-1-(tert-Butylsulfonyl)-4,4,4-trifluorobutan-2-yl)-6-(3-chlorophenyl)-5-(4-chlorophenyl)-2-ethyl-3-oxomorpholin-2-yl)acetic acid or 2-((2S,5R,6R)-4-((S)-1-(tert-butylsulfonyl)-4,4,4-trifluorobutan-2-yl)-6-(3-chlorophenyl)-5-(4-chlorophenyl)-2-ethyl-3-oxomorpholin-2-yl)acetic acid] came in with a concentration for half-maximal inhibition (IC50) of 0.104 µM.
`CC[C@@H](CS(=O)(=O)C(C)(C)C)N1C(=O)[C@H](CC(N)=O)O[C@H](c2cccc(Cl)c2)[C@H]1c1ccc(Cl)cc1` (single isomer, unassigned) [Example 260, 2-((2S,5R,6R)-4-((S)-1-(tert-butylsulfonyl)butan-2-yl)-6-(3-chlorophenyl)-5-(4-chlorophenyl)-3-oxomorpholin-2-yl)acetamide or 2-((2R,5R,6R)-4-((S)-1-(tert-butylsulfonyl)butan-2-yl)-6-(3-chlorophenyl)-5-(4-chlorophenyl)-3-oxomorpholin-2-yl)] displayed a half-inhibitory concentration (IC50) of 0.008 µM.
For the molecule `Cc1nnc(C[C@H]2O[C@@H](c3cccc(Cl)c3)[C@@H](c3ccc(Cl)cc3)N([C@H](CN(c3ccccc3F)S(=O)(=O)C3CC3)C3CC3)C2=O)o1` (single isomer, unassigned) [Example 404, N-((S)-2-((2S,3R,6R)-2-(3-Chlorophenyl)-3-(4-chlorophenyl)-6-((5-methyl-1,3,4-oxadiazol-2-yl)methyl)-5-oxomorpholino)-2-cyclopropylethyl)-N-(2-fluorophenyl)cyclopropanesulfonamide or N-((S)-2-((2R,3R,6R)-2-(3-chlorophenyl)-3-(4-chlorophenyl)-6-((5-methyl-1,3,4-oxadiazol-2-yl)methyl)-5-oxomorpholino)-2-cyclopropylethyl)-N-(2-fluorophenyl)cyclopropanesulfonamide], the IC50 came to 0.134 µM.

The target of the next test is T2, human MDM2 (GST-hMDM2 aa 1-188), interaction with biotinylated-p53 (aa 1-83) (Homo sapiens, UniProt Q00987).
T2 construct: Amino acid residues 1-188 of human MDM2 were expressed; made in house; host or cells: Escherichia coli
T2 sequence (Q00987 1-188): as above
Kind of test: Homogenous Time-Resolved Fluorescence Assay (HTRF1 assay), inhibition of HDM2-p53 interaction. It is filed as binding. The following applies: 2.5 nM GST-hMDM2, 5 nM biotinylated-p53, 200 mM KF. The method, then:
Homogenous Time-Resolved Fluorescence Assay (HTRF1 Assay)
Residues 1-83 of human p53 were expressed as an amino-terminal AviTag™-TrxA-6xHis fusion protein (biotinylated p53) in E. coli. Each protein was purified from cell paste by affinity chromatography.
Specifically, 10 uL of GST-hMDM2 was incubated with 10 ul of diluted compound (various concentrations, serially diluted) in 10% DMSO for 20 minutes at room temperature. 20 uL of biotinylated-p53 was added to the GST-hMDM2+ compound mixture, and then incubated at room temperature for 60 min. 10 uL of detection buffer consisting of SA-XLent, anti-GST cryptate antibody and KF was added to GST-hMDM2, biotinylated-p53 and compound reaction and left at room temperature to reach equilibrium for >4 hrs. The final concentration of DMSO in the reaction was 2%. Time-resolved fluorescence readings were measured on a microplate multilabel reader. Percentage of inhibition was calculated relative to nutlin-3.
`O=C(O)C[C@@H]1O[C@H](c2cccc(Cl)c2)[C@@H](c2ccc(OC(F)(F)F)cc2)N(CC2CC2)C1=O` [Example 59, 2-((2S,5R,6R)-6-(3-Chlorophenyl)-4-(cyclopropylmethyl)-3-oxo-5-(4-(trifluoromethoxy)phenyl)morpholin-2-yl)acetic acid] yielded a concentration for half-maximal inhibition (IC50) of 0.7 µM.
In turn, `O=C(O)C[C@H]1O[C@H](c2cccc(Cl)c2)[C@@H](c2ccc(Cl)cc2)N(C2CCC2)C1=O` [Example 13, 2-((2R,5R,6R)-6-(3-Chlorophenyl)-5-(4-chlorophenyl)-4-cyclobutyl-3-oxomorpholin-2-yl)acetic acid] showed an IC50 of 0.7 µM.
In turn, `COc1ccc([C@@H]2[C@@H](c3cccc(Cl)c3)OC(CC(=O)O)C(=O)N2CC2CC2)cc1` (single isomer, unassigned) [Example 75] showed an IC50 of 3.7 µM.
For `O=C(O)C[C@H]1O[C@H](c2cccc(Cl)c2)[C@@H](c2ccc(Cl)cc2)N(C2CCCCC2)C1=O` [Example 17, 2-((2R,5R,6R)-6-(3-Chlorophenyl)-5-(4-chlorophenyl)-4-cyclohexyl-3-oxomorpholin-2-yl)acetic acid], the IC50 was determined as 0.2 µM.
In turn, `O=C(O)C[C@@H]1O[C@H](c2cccc(Cl)c2)[C@@H](c2ccc(Cl)cc2)N(CCC(F)(F)F)C1=O` [Example 11, 2-((2S,5R,6R)-6-(3-Chlorophenyl)-5-(4-chlorophenyl)-3-oxo-4-(3,3,3-trifluoropropyl)morpholin-2-yl)acetic acid] came in with an IC50 of 0.6 µM.
On the same count and under the same terms, as for `O=C(O)CC1O[C@H](c2cccc(Cl)c2)[C@@H](c2ccc(Cl)cc2Br)N(CC2CC2)C1=O` (single isomer, unassigned) [Example 80], the figure is 14.8 µM; as for `N#Cc1cc(F)cc([C@H]2OC(CC(=O)O)C(=O)N(CC3CC3)[C@@H]2c2ccc(Cl)cc2)c1` (single isomer, unassigned) [Example 99], 1.1 µM; as for `CCCCN1C(=O)[C@H](CC(=O)O)O[C@H](c2cccc(Cl)c2)[C@H]1c1ccc(Cl)cc1` [Example 40, 2-((2S,5R,6R)-4-Butyl-6-(3-chlorophenyl)-5-(4-chlorophenyl)-3-oxomorpholin-2-yl)acetic acid], 0.7 µM.
The molecule `N#Cc1cc(F)cc([C@H]2OC(CC(=O)O)C(=O)N(CC3CC3)[C@@H]2c2ccc(Cl)cc2)c1` (single isomer, unassigned) [Example 98] displayed an IC50 of 1.8 µM.
The molecule `Cc1cccc([C@H]2OC(CC(=O)O)C(=O)N(CC3CC3)[C@@H]2c2ccc(Cl)cc2)c1` (single isomer, unassigned) [Example 102] returned an IC50 of 6.5 µM.
The same measure, in the same setting: as for `O=C(O)C[C@@H]1O[C@H](c2cccc(Cl)c2)[C@@H](c2ccccc2)N(CC2CC2)C1=O` [Example 55, 2-((2S,5R,6R)-6-(3-Chlorophenyl)-4-(cyclopropylmethyl)-3-oxo-5-phenylmorpholin-2-yl)acetic acid], the figure is 3.3 µM; as for `O=C(O)C[C@H]1O[C@H](c2cccc(Cl)c2)[C@@H](c2ccc(OC(F)(F)F)cc2)N(CC2CC2)C1=O` [Example 65, 2-((2R,5R,6R)-6-(3-Chlorophenyl)-4-(cyclopropylmethyl)-3-oxo-5-(4-(trifluoromethoxy)phenyl)morpholin-2-yl)acetic acid], 1.1 µM; as for `C[C@H](C1CCC1)N1C(=O)[C@H](CC(=O)O)O[C@H](c2cccc(Cl)c2)[C@H]1c1ccc(Cl)cc1` [Example 21, 2-((2S,5R,6R)-6-(3-Chlorophenyl)-5-(4-chlorophenyl)-4-((R)-1-cyclobutylethyl)-3-oxomorpholin-2-yl)acetic acid], 0.3 µM.
For `CC[C@H](C(=O)OC(C)(C)C)N1C(=O)[C@H](CC(=O)O)O[C@H](c2cccc(Cl)c2)[C@H]1c1ccc(Cl)cc1` (single isomer, unassigned) [Example 30], the IC50 came to 1.8 µM.
`COc1cccc([C@H]2OC(CC(=O)O)C(=O)N(CC3CC3)[C@@H]2c2ccc(Cl)cc2)c1` (single isomer, unassigned) [Example 89] yielded a 50% inhibitory concentration (IC50) of 6.1 µM.
On the same count and under the same terms, the result for `O=C(O)CC1O[C@H](c2cccc(F)c2)[C@@H](c2ccc(Cl)cc2)N(CC2CC2)C1=O` (single isomer, unassigned) [Example 85] reads 1.6 µM; that for `O=C(O)CC1O[C@H](c2cc(F)cc(F)c2)[C@@H](c2ccc(Cl)cc2)N(CC2CC2)C1=O` (single isomer, unassigned) [Example 96], 1.1 µM; that for `O=C(O)C[C@H]1O[C@H](c2cccc(Cl)c2)[C@@H](c2ccc(Cl)cc2)NC1=O` [Example 35, 2-((2R,5R,6R)-6-(3-Chlorophenyl)-5-(4-chlorophenyl)-3-oxomorpholin-2-yl)acetic acid], 13 µM.
Still for that read-out and setting: as for `O=C(O)C[C@@H]1O[C@H](c2cccc(Cl)c2)[C@@H](c2cc3ccccc3[nH]2)N(CC2CC2)C1=O` (single isomer, unassigned) [Example 2, 2-((2S,5R,6R)-6-(3-Chlorophenyl)-4-(cyclopropylmethyl)-5-(1H-indol-2-yl)-3-oxomorpholin-2-yl)acetic acid or 2-((2R,5R,6R)-6-(3-Chlorophenyl)-4-(cyclopropylmethyl)-5-(1H-indol-2-yl)-3-oxomorpholin-2-yl)acetic acid], the figure is 31.4 µM; as for `COc1ccc([C@@H]2[C@@H](c3cccc(Cl)c3)OC(CC(=O)O)C(=O)N2CC2CC2)cc1` (single isomer, unassigned) [Example 76], 1.4 µM.
As for `O=C(O)CC1O[C@H](c2cccc(Cl)c2)[C@@H](c2ccc(Cl)c(F)c2)N(CC2CC2)C1=O` (single isomer, unassigned) [Example 77], half-maximal inhibition (IC50) was put at 0.3 µM.
With `Cn1c([C@@H]2[C@@H](c3cccc(Cl)c3)O[C@H](CC(=O)O)C(=O)N2CC2CC2)nc2ccccc21.Cn1c([C@H]2[C@H](c3cccc(Cl)c3)O[C@@H](CC(=O)O)C(=O)N2CC2CC2)nc2ccccc21` (mixture of isomers) [Example 6, 2-((2R,5R,6R)-6-(3-Chlorophenyl)-4-(cyclopropylmethyl)-5-(1-methyl-1H-benzo[d]imidazol-2-yl)-3-oxomorpholin-2-yl)acetic acid and 2-((2S,5S,6S)-6-(3-Chlorophenyl)-4-(cyclopropylmethyl)-5-(1-methyl-1H-benzo[d]imidazol-2-yl)-3-oxomorpholin-2-yl)acetic acid], the IC50 turned out to be 46.7 µM.
Still for that read-out and setting: the result for `O=C(O)CC1O[C@H](c2cc(Cl)cc(Br)c2)[C@@H](c2ccc(Cl)cc2)N(CC2CC2)C1=O` (single isomer, unassigned) [Example 105] reads 0.3 µM; that for `O=C(O)C[C@@H]1O[C@H](c2cccc(Cl)c2)[C@@H](c2ccc(Cl)cc2)N(C2CCCCC2)C1=O` [Example 16, 2-((2S,5R,6R)-6-(3-Chlorophenyl)-5-(4-chlorophenyl)-4-cyclohexyl-3-oxomorpholin-2-yl)acetic acid], 0.3 µM; that for `O=C(O)C[C@@H]1O[C@H](c2cc(Cl)cc(-c3cn[nH]c3)c2)[C@@H](c2ccc(Cl)cc2)N(CC2CC2)C1=O` (single isomer, unassigned) [Example 107], 3.8 µM.

As a reminder, the IC50 is the concentration that inhibits the measured activity by half. High values mean weaker potency in that assay, low ones greater potency in that assay.
